Test results reported in patent US7479471B2, “2-Amino-4-bicyclylamino-6H-1,3,5-triazines, processes for their preparation and their use as herbicides and plant growth regulators” (Bayer CropScience GmbH, priority 2002, dated 2009).

Tests used:
Format in all cases: in vivo
[1] = tested on: harmful plants which are typical for rice crops; experiment: Action against harmful plants in rice (paddy rice conditions); conditions: applied to the paddy water; approximately three weeks after application; Cyperus monti, Echinochloa crus-galli, Eleocharis acicularis, Sagittaria pygmaea; note: test concentration or dose not given here
Protocol: Transplanted and seeded rice and typical rice weeds are grown in the greenhouse until they have reached the three-leaf stage (Echinochloa 1.5-leaves) under paddy rice conditions (flooding level of the water: 2-3 cm) in closed plastic pots. They are then treated with the compounds according to the invention. To this end, the formulated active substances are suspended, dissolved or emulsified in water and applied to the paddy water of the test plants at various dosages by application by pouring.
After the treatment has been carried out in this way, the test plants are placed into the greenhouse under optimum growth conditions and are kept in this way over the entire experimental period.

crop plants = experiment: Crop plant tolerance (greenhouse, pre- and post-emergence); conditions: visual scoring four to five weeks after application
Protocol: In further greenhouse experiments, seeds of a relatively large number of crop plants and weeds are placed in sandy loam and covered with soil. Some of the pots are treated immediately as described in Section 1, while the remaining pots are placed in the greenhouse until the plants have developed two to three real leaves, and they are then sprayed with various dosages of substances of the formula (I) according to invention as described in Section 2. Four to five weeks after the application and standing time in the greenhouse, it is found by means of visual scoring that the compounds according to the invention leave dicotyledonous crops such as, for example, soybeans, cotton, oilseed rape, sugar beet and potatoes unharmed when applied pre- and post-emergence, even at high rates of active compound. In addition, some substances also leave graminaceous crops such as, for example, barley, wheat, rye, sorghum, corn or rice, unharmed.

[2] = tested on: monocotyledonous and dicotyledonous weeds; experiment: Post-emergence herbicidal action (greenhouse pot test); conditions: post-emergence method; application rate of 0.5 kg or less of active substance per hectare; scored after approx. 3 to 4 weeks; Sinapis alba, Echinochloa crus-galli, Lolium multiflorum, Chrysanthemum segetum, Setaria spp., Abutilon theophrasti, Amaranthus retroflexus, Panicum miliaceum, Avena sativa
Protocol: Seeds or rhizone pieces of monocotyledonous and dicotyledonous weeds are placed in sandy loam in plastic pots, covered with soil and grown in the greenhouse under good growth conditions. Three weeks after sowing, the test plants are treated at the three-leaf stage. Various dosages of the compounds according to the invention, which are formulated as wettable powders or emulsion concentrates, are sprayed onto the green plant parts at an application rate of 600 to 800 l of water per ha (converted), and after the test plants have been left to stand in the greenhouse for approx. 3 to 4 weeks under optimum growth conditions, the effect of the preparations is scored visually by comparison with untreated controls. The compositions according to the invention also have good herbicidal post-emergence activity against a broad spectrum of economically important weed grasses and broad-leaved weeds.

[3] = tested on: monocotyledonous and dicotyledonous weed plants; experiment: Pre-emergence herbicidal action (greenhouse pot test); conditions: pre-emergence method; application rate of 0.5 kg and less of active substance per hectare; Sinapis alba, Chrysanthemum segetum, Avena sativa, Stellaria media, Echinochloa crus-galli, Lolium multiflorum, Setaria spp., Abutilon theophrasti, Amaranthus retrofluxus, Panicum miliaceum
From the text: Seeds or rhizome pieces of monocotyledonous and dicotyledonous weed plants are placed in sandy loam in plastic pots and covered with soil. The compounds according to the invention, which are formulated in the form of wettable powders or emulsion concentrates, are then applied to the surface of the soil cover as aqueous suspension or emulsion at various dosages with an application rate of 600 to 800 l of water/ha (converted).
After the treatment, the pots are placed into a greenhouse and kept under good growth conditions for the weeds. The plant or emergence damage is scored visually after the untreated controls have emerged. As shown by the test results, the compounds according to the invention have good herbicidal pre-emergence activity against a broad spectrum of weed grasses and broad-leaved weeds.

Compound	herbicidal action against harmful plants typical for rice crops, scored visually [1]	selectivity (crop plants versus weeds) (crop plants)	herbicidal action against harmful plants, scored visually [2]	herbicidal action against harmful plants, scored visually [3]
Cc1cc(C)c2c(c1)C(Nc1ncnc(N)n1)CCO2 (stereo not drawn) [Example 4]	very good herbicidal action	in some cases high selectivity	very good herbicidal action	very good herbicidal action
Cc1cc(F)cc2c1OCCC2Nc1ncnc(N)n1 (stereo not drawn) [Example 288]	very good herbicidal action	in some cases high selectivity	very good herbicidal action	very good herbicidal action
Cc1cc(C)c2c(c1)C(Nc1ncnc(N)n1)CCC2 (stereo not drawn) [Example 1]	very good herbicidal action	in some cases high selectivity	very good herbicidal action	very good herbicidal action
CC(=O)Nc1ncnc(NC2c3cc(F)ccc3CC2C)n1 (stereo not drawn) [Example 283]	very good herbicidal action	in some cases high selectivity	very good herbicidal action	very good herbicidal action
Nc1ncnc(NC2CCc3ccccc32)n1 (stereo not drawn) [Example 185]	very good herbicidal action	in some cases high selectivity	very good herbicidal action	very good herbicidal action
CC1Cc2cc(Cl)ccc2C1Nc1ncnc(N)n1 (stereo not drawn) [Example 58]	very good herbicidal action	in some cases high selectivity	very good herbicidal action	very good herbicidal action
Cc1cccc2c1OCCC2Nc1ncnc(N)n1 (stereo not drawn) [Example 5]	very good herbicidal action	in some cases high selectivity	very good herbicidal action	very good herbicidal action
Cc1ccc2c(c1C)CCCC2Nc1ncnc(N)n1 (stereo not drawn) [Example 19]	very good herbicidal action	in some cases high selectivity	very good herbicidal action	very good herbicidal action
Cc1cc(C)c2c(c1)C(Nc1ncnc(N)n1)CCS2 (stereo not drawn) [Example 79]	very good herbicidal action	in some cases high selectivity	very good herbicidal action	very good herbicidal action
CC1Cc2ccc(F)cc2C1Nc1ncnc(N)n1 (stereo not drawn) [Example 282]	very good herbicidal action	in some cases high selectivity	very good herbicidal action	very good herbicidal action
Cc1ccc2c(c1)C(Nc1ncnc(N)n1)C(C)(C)C2 (stereo not drawn) [Example 292]	very good herbicidal action	in some cases high selectivity	very good herbicidal action	very good herbicidal action
CCC1Cc2ccc(C)cc2C1Nc1ncnc(N)n1 (stereo not drawn) [Example 291]	very good herbicidal action	in some cases high selectivity	very good herbicidal action	very good herbicidal action
Cc1ccc2c(c1)C(Nc1ncnc(N)n1)C(C)C2 (stereo not drawn) [Example 281]	very good herbicidal action	in some cases high selectivity	very good herbicidal action	very good herbicidal action
Cc1cccc2c1C(Nc1ncnc(N)n1)C(C)C2 (stereo not drawn) [Example 290]	very good herbicidal action	in some cases high selectivity	very good herbicidal action	very good herbicidal action
CC1Cc2ccc(F)cc2C1Nc1ncnc(NC(=O)CCl)n1 (stereo not drawn) [Example 286]	very good herbicidal action	in some cases high selectivity	very good herbicidal action	very good herbicidal action
CC1Cc2cc(F)ccc2C1Nc1ncnc(N)n1 (stereo not drawn) [Example 55]	very good herbicidal action	in some cases high selectivity	very good herbicidal action	very good herbicidal action
CC1Cc2ccccc2C1Nc1ncnc(N)n1 (stereo not drawn) [Example 198]	very good herbicidal action	in some cases high selectivity	very good herbicidal action	very good herbicidal action
Nc1ncnc(NC2CCOc3ccc(F)cc32)n1 (stereo not drawn) [Example 289]	very good herbicidal action	in some cases high selectivity	very good herbicidal action	very good herbicidal action
